Our source for the TGI values is PubChem BioAssay (NCI).

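48-hour exposure; five concentrations; linearly interpolated endpoints. Definition used: TGI = concentration required for complete inhibition of growth.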

Test in all cases: NCI-60 cell line screen, 48 h
The test system of assay [1] is A549 NSCLC.
The test system of assay [2] is CAKI-1 renal.
The test system of assay [3] is CCRF-CEM leukemia.
The subject of assay [4] is HCC-2998 colon.
Assay [5] has as its system HOP-62 NSCLC.
Assay [6] has as its system HOP-92 NSCLC.
The test system of assay [7] is KM12 colon.
In assay [8] the test system is M14 melanoma.
Assay [9] deals with MALME-3M melanoma.
In assay [10] the test system is NCI-H23 lung.
Assay [11] has as its system NCI-H522 lung.
Assay [12] concerns OVCAR-3 ovarian.
The subject of assay [13] is PC-3 prostate.
In assay [14] the test system is SF-268 CNS.
For assay [15], the system named is SK-MEL-5 melanoma.
Assay [16] relates to TK-10 renal.
Assay [17] has as its system U251 CNS.
Assay [18] relates to UACC-257 melanoma.
Assay [19] deals with HL-60(TB) leukemia.

With `O=[N+]([O-])c1ccc(N=Nc2c(O)ccc3ccccc23)c([N+](=O)[O-])c1`, the TGI in assay [1] was > 100 µM; in [2], > 100 µM; in assay [3] it was > 64.6 µM; in assay [4] it was > 100 µM; in assay [5], > 100 µM; in assay [6] it was > 100 µM. The TGI in [7], in [8], in assay [9], in assay [10], in assay [11] and in assay [12] was > 100 µM throughout. Further, the TGI in [13], in assay [14], in assay [15], in [16], in [17] and in assay [18] was > 100 µM in each case.

In the case of `COc1cc(S(=O)(=O)Nc2nc(-c3ccc(N4C(=O)/C(=C/C=C/c5ccccc5)N=C4c4ccccc4)cc3)cs2)ccc1Cl`, the TGI in assay [1], in assay [2], in assay [3], in assay [19], in assay [5] and in assay [6] was > 100 µM in each case. Besides, the TGI in assay [7], in [8], in [9], in [10], in assay [11] and in assay [12] was > 100 µM each time. Moreover, the TGI in [13], in assay [14], in assay [15], in [16], in [17] and in [18] was > 100 µM each time.

For the compound `Nc1nc2c(c(=O)[nH]1)C(c1ccccc1)CC(=O)N2` (centres undefined), the TGI in [1], in assay [4], in assay [5], in [7], in assay [8] and in [9] was > 100 µM each time. The TGI in [10], in assay [12], in [13], in assay [14], in assay [15] and in [16] was > 100 µM each time. Also, the TGI in assay [17] and in assay [18] was > 100 µM in each case.

For `C=CCN1C(=O)/C(=C\c2cc(C(C)(C)C)c(O)c(C(C)(C)C)c2)NC1=S`, the TGI in [1] is > 100 µM; in [2], 83.3 µM; in assay [3] it was 20.4 µM; in assay [19] it was 25.1 µM; in [5], 51.5 µM; in [6], > 100 µM. The TGI in [7] was 72.6 µM; in assay [8] it was 75.4 µM; in [9] it was > 100 µM; in assay [10], 94 µM; in assay [11], 27.8 µM; in assay [12], 39.6 µM. Moreover, the TGI in assay [13] is 42 µM; in assay [14], > 100 µM; in assay [15], 30.1 µM; in assay [16] it was 73.9 µM; in assay [17], 32.7 µM; in assay [18], 43.4 µM.

As to `O=c1[nH]/c(=C/c2ccc(OCc3ccccc3)cn2)c(=O)[nH]/c1=C/c1ccc(F)cc1`, the TGI in assay [1] was > 50 µM; in assay [2] it was > 100 µM; in assay [3], > 44.7 µM; in [4] it was > 40.3 µM; in [5], > 35.5 µM; in assay [6], > 37.7 µM. Further, the TGI is > 40.9 µM in [7]; > 32.1 µM in [8]; > 51.8 µM in [9]; > 50.4 µM in assay [10]; 9.06 µM in assay [11]; 1.42 µM in assay [12]. The TGI is > 45.4 µM in assay [13]; > 40.7 µM in [14]; > 100 µM in [15]; > 39.7 µM in [16]; > 35.7 µM in [17]; 58.4 µM in assay [18].

With `Nn1c(CCCCCCCCc2nnc(COc3ccc4ccccc4c3O)n2N)nnc1COc1ccc2ccccc2c1O`, the TGI in assay [1] is > 100 µM; in [2] it was 41.8 µM; in assay [4] it was 67.7 µM; in assay [6] it was 60 µM; in assay [7], 49.4 µM; in [8], 78.4 µM. Besides, the TGI in assay [9] was > 100 µM; in [10] it was 41.6 µM; in [11], 42 µM; in assay [13], > 100 µM; in [14], > 100 µM; in assay [15], 37.5 µM. In addition, the TGI in [16], in [17] and in assay [18] was > 100 µM throughout.

Consider `N#CC1C(=O)SC2c3ccccc3C(=O)c3ccccc3C12` (centres undefined), for which the TGI in assay [1], in assay [2], in [3], in assay [4], in [19] and in [5] was > 10 µM each time. For the same compound, the TGI in assay [7], in assay [8], in assay [9], in [10], in [12] and in [13] was > 10 µM each time. Also, the TGI in assay [14], in assay [15], in [16], in assay [17] and in assay [18] was > 10 µM throughout.

In the case of `COc1cccc(/C=C2\CCCc3ccccc3C2=O)c1`, the TGI was > 100 µM in assay [1]; > 100 µM in assay [2]; 35.3 µM in assay [3]; 35 µM in [19]; 31 µM in assay [5]; 43.2 µM in assay [6]. Besides, the TGI in assay [7] was found to be 38.8 µM; in assay [8], 25.6 µM; in assay [9] it was 43 µM; in assay [10], 32.6 µM; in [11], 40.3 µM; in assay [12], 34 µM. The TGI in [13] came out at 38.6 µM; in assay [14], 23 µM; in assay [16], 82.6 µM; in [17], 29.3 µM; in [18], 33.2 µM.

As to `N#CC(C#N)=C/C=C(\Sc1c(Cl)c(Cl)nc(Cl)c1Cl)c1ccc(Cl)cc1`, the TGI was > 100 µM in [1]; 34.2 µM in [2]; > 100 µM in assay [3]; > 100 µM in assay [19]; 96.6 µM in assay [5]; > 100 µM in [6]. Moreover, the TGI in assay [7] stood at 51.5 µM; in assay [8], 38.9 µM; in assay [9], 46.6 µM; in assay [10], 35.9 µM; in assay [11], 56.5 µM; in assay [12], 27.3 µM. The TGI was > 100 µM in [13]; 54.1 µM in assay [14]; 27.7 µM in assay [15]; 41.2 µM in assay [16]; 33.3 µM in assay [17]; 37.2 µM in [18].

Regarding `O=C(CC(C(=O)c1cccs1)c1cccs1)c1ccsc1` (centres undefined), the TGI in assay [1] is > 100 µM; in assay [2], > 100 µM; in assay [3] it was > 100 µM; in assay [4], > 100 µM; in [19] it was 95 µM; in [5], > 100 µM. The TGI in [7], in [8], in assay [9], in assay [10], in [13] and in [14] was > 100 µM throughout. In addition, the TGI in [15], in [16], in [17] and in assay [18] was > 100 µM throughout.

Take `CN(C)CC1CN=C(N)O1` (centres undefined): the TGI in [1], in assay [2], in assay [3], in assay [4], in [5] and in [6] was > 100 µM in each case. The TGI in [7], in [8], in [9], in [10], in assay [11] and in assay [12] was > 100 µM in each case. Further, the TGI in [13], in assay [14], in assay [15], in assay [16], in assay [17] and in assay [18] was > 100 µM throughout.

In the case of `Clc1ccc(OCc2nnc(CCCCCCCCc3nnc(COc4ccc(Cl)cc4Cl)n3Nc3ccccc3)n2Nc2ccccc2)c(Cl)c1`, the TGI in assay [1] turned out to be 64.4 µM; in assay [2], 49.3 µM; in assay [4] it was 20.8 µM; in [5], 18.2 µM; in assay [6], 46.3 µM; in assay [7] it was 25.6 µM. Also, the TGI in assay [8] was 29.2 µM; in [9] it was 40.6 µM; in assay [10] it was 51 µM; in [11] it was 24.7 µM; in assay [12] it was 25.4 µM; in assay [13] it was 34.8 µM. Moreover, the TGI in assay [14] was 32.1 µM; in [15], 7.05 µM; in assay [16], > 75.1 µM; in assay [17] it was 27.1 µM; in assay [18], 36.2 µM.

For `CC[C@H](Nc1c(O)c2c(c(O)c1Cl)C(=O)C=CC2=O)C(=O)OC`, the TGI in assay [1] is > 10 µM; in assay [2], > 10 µM; in [3], > 10 µM; in assay [19] it was 8.64 µM; in assay [5], > 10 µM; in assay [6] it was > 10 µM. Further, the TGI in assay [7], in assay [8], in [9], in [10], in assay [11] and in assay [12] was > 10 µM in each case. Moreover, the TGI in assay [13], in assay [14], in assay [15], in assay [16], in assay [17] and in [18] was > 10 µM each time.

`Nc1nc(Cl)c(/C=N\O)c(NCC2(CO)CCC2)n1`: the TGI in assay [1], in assay [2], in assay [3], in [4], in assay [5] and in [6] was > 100 µM in each case. Besides, the TGI in assay [7] was 18.3 µM; in [9], > 100 µM; in assay [10] it was > 100 µM; in assay [11], > 100 µM; in assay [12], > 100 µM; in assay [13] it was > 100 µM. Moreover, the TGI in [14], in assay [15], in [16], in assay [17] and in assay [18] was > 100 µM each time.

Consider `O=S(CC1(O)CCCCC1)c1ccccc1` (centres undefined), for which the TGI in [1], in assay [2], in assay [3], in assay [4], in assay [19] and in assay [5] was > 100 µM throughout. Moreover, the TGI in assay [7], in assay [8], in assay [9], in [10], in assay [11] and in [13] was > 100 µM throughout. The TGI in assay [14], in assay [15], in [16], in [17] and in [18] was > 100 µM in each case.

With `O=C(Nc1ccccc1)c1cc2ccccc2c(N=Nc2ccc([N+](=O)[O-])cc2)c1O`, the TGI in [1] is > 100 µM; in assay [2], > 100 µM; in assay [3] it was 46.4 µM; in [19], > 100 µM; in assay [5], > 100 µM; in [6], > 100 µM. Also, the TGI in [7], in assay [8], in [9], in assay [10], in assay [11] and in [12] was > 100 µM throughout. For the same compound, the TGI in assay [13], in [14], in [15], in assay [16], in assay [17] and in assay [18] was > 100 µM throughout.
